Experimental findings from publication PMC4747383, “Design of a peptidic inhibitor that targets the dimer interface of a prototypic galectin” (Oncotarget, 2015) are described below.

Entries after “also recorded” stand apart in the source; their conditions may differ. No end group written: not given here.

One experiment relates to Jurkat T cells. The experiment is described as follows: hGal-7-induced apoptosis of Jurkat T cells, Annexin V/PI flow cytometry. Format: cell-based. As to conditions: hGal-7 and peptide pre-incubated 1 h at 4°C, cells 4 h at 37°C, serum free RPMI 1640, three independent experiments. How it is done:
Apoptosis was measured by Western blot analysis of PARP-1 cleavage. The PACAP28–38 was used as a control. β-actin was used as a loading control. B. Flow cytometric analysis of Jurkat T cells with stained Annexin V (FL1) and propidium iodide-PI (FL3) following binding of recombinant hGal-7 with or without hGal-7(129–135). Cells in the lower right quadrant are representative of annexin V-positive/PI-negative, or early apoptotic cells. Cells in the upper right quadrant indicate annexin V-positive/PI-positive, or late apoptotic cells. C. Histogram showing the percentages of annexin V-positive Jurkat T cells obtained by adding the percentages of cells found in the lower and upper right quadrants. Results are representative of three independent experiments. Error bars represent standard deviation.
Apoptosis was measured by flow cytometry using FITC-labeled Annexin V (Biolegend, San Diego, CA, USA) and propidium iodide (PI). Briefly, the corresponding dilutions of recombinant hGal-7 and hGal-7(129–135) peptides were pre-incubated for 1 h at 4°C in serum free RPMI 1640 medium. 2.5 × 10^5 Jurkat cells were then harvested in the same medium and incubated with their corresponding dilutions at 37°C for 4 h. Cells were washed once in PBS and once in binding buffer (0.01 M HEPES, 0.14 M NaCl, 2.5 mM CaCl2, pH 7.4). Cells were then incubated for 15 min with Annexin V in the dark at room temperature. A total of 400 μL of binding buffer containing 0.25 μg/mL propidium iodide was added to the cells before analysis by flow cytometry.

Another experiment concerns recombinant hGal-7. Briefly: Disruption of hGal-7 homodimers, native gel electrophoresis/Western blot. Format: biochemical, human. As to conditions: for disruption of hGal-7 homodimers (in words): 0.5 μM recombinant hGal-7, 20 mM potassium phosphate pH 7.1, 1 h at 4°C. The source says:
To measure the ability of the peptides to disrupt the formation of hGal-7 dimers, we used mild denaturing native gel electrophoresis, a commonly used approach to visualize monomer-dimer equilibrium (Fig. 1A and Supplementary Fig. S1). […] This specificity at disrupting hGal-7 dimer formation is provided by distinct three-dimensional arrangements between otherwise very similar galectin homologues. Indeed, while all monomeric galectins reveal identical topologies, dimer formation in hGal-7 proceeds through a “back-to-back” topology of the monomers while other galectins, including hGal-1 and hGal-2, adopt a “side-by-side” structural arrangement (Fig. 1B). This structural organization provides additional means to specifically target and disrupt galectin function.
Incubation of the recombinant B. hGal-1 and C. hGal-2 with hGal-7(129–135) was performed in the same potassium phosphate buffer. The effect of hGal-7(129–135) on the monomeric and dimeric forms of hGal-7/hGal-1/hGal-2 was assessed by Western blotting in native conditions with respective antibodies. The hGal-1/hGal-2 films were overexposed. PACAP28–38 was the control peptide used in order to ensure the specificity of hGal-7(129–135). Recombinant hGal-7 (0.5 μM) was also incubated with increasing concentrations of hGal-7(129–135) in 0.1 mM D. lactose or E. LacNac solutions. Results are representative of three independent experiments.
Human Gal-7 cDNA was cloned into pET-22b(+) using NdeI and HindIII restriction enzymes. Human pET-Gal-1 vector was generously donated by Dr. S. Sato (McGill University, QC, Canada). The proteins were produced in E. coli BL21 (DE3) cells at 37°C. Isopropyl β-D-1-thiogalactopyranoside (IPTG) (1 mM) was added to the bacterial culture at OD600nm = 0.6–0.7 and then incubated for 4 h at 37°C to allow protein production. Bacterial pellets were resuspended in lysis buffer (0.7 mg/mL lysozyme, 10 mM Tris pH 8, 100 mM NaCl, 1 mM EDTA, 1 mM DTT and a protease inhibitor cocktail) and then incubated for 1 h at 37°C prior to centrifugation for 30 min at 15,000 × g (4°C). The supernatant was then filtered with 500 mL bottle top filter ([…]) (Corning, New York, NY, USA) and then ran through a lactose-agarose column (Sigma, St. Louis, MO, USA). The protein was eluted in 1 mL fractions with 150 mM lactose solution. Purified fractions were analyzed by SDS-PAGE. The hGal-7 was then concentrated and purified using Centrifugal filter units (Amicon Ultra-15, 10K) (EMD, Millipore, Etobicoke, ON) in 20 mM potassium phosphate at pH 7.1. All subsequent experiments with the recombinant proteins were performed in the same buffer solution unless mentioned otherwise. Brilliant Coomassie blue was purchased from BioRad (Bio-Rad Laboratories, Mississauga, ON, Canada). The recombinant protein hGal-2 was purchased from MyBiosource (San Diego, CA, USA). […]
gaI-7 (0.5 μM) was incubated with increasing concentrations of biotin-labeled hGaI-7129–135 in 20 mM potassium phosphate buffer (pH 7.1) for 60 min at 4°C beforeWestern blot analysis in low SDS-PAGE using an anti-gaI-7 antibody. B. Similar experiments were carried out using recombinant human B. gaI-1 and C. gaI-2. Results are representative of two independent experiments.
(also on this page, place not known: www.impactjournals.com/oncotarget/ Oncotarget, Materials 2015 Supplementary hGaI-7 129–135.)

[1] abbreviates: 0.5 μM recombinant hGal-7, 20 mM potassium phosphate pH 7.1, pre-incubated 1 h at 4°C, native PAGE, Western blot, representative of three independent experiments.

Turning to “H-LDSVRIP-NH2 [hGal-7(129–135), peptide corresponding to hGal-7 segment between residues 129–135]”, the “hGal-7-induced apoptosis of Jurkat T cells (Annexin V/PI)” value (shortened to “hGal-7-induced apoptosis”) in the experiment with Jurkat T cells is “This effect on apoptosis was confirmed by flow cytomtery”. Also, the “hGal-7-induced apoptosis” value with Jurkat T cells (listed as hGal-7 (129–135)) is listed as “Apoptotic levels of Jurkat T cells induced by hGal-7 were decreased”. The “disruption of hGal-7 homodimers in presence of LacNac” value in the experiment with recombinant hGal-7 (0.5 μM hGal-7, 0.1 mM LacNac, representative of three independent experiments) is given as “not inhibited by the presence of lactose or LacNac”. Moreover, in the experiment on recombinant hGal-7 (0.5 μM hGal-7, 0.1 mM lactose, representative of three independent experiments), the “disruption of hGal-7 homodimers in presence of lactose” value is “not inhibited by the presence of lactose”. In addition, the “disruption of hGal-7 homodimers (in words)” value with recombinant hGal-7 (native PAGE, Western blot) is “Disruption of the hGal-7 dimer; also recorded: effective at relatively high concentrations”. Further, in the experiment on recombinant hGal-7 (setting [1]), the “lowest concentration giving a consistent decrease of hGal-7 homodimers” value worked out at 10 µM and the “saturation dose for decrease of hGal-7 homodimers” value was 100 µM.
Consider “PACAP(28–38): an inactive fragment of the human Pituitary Adenylate Cyclase-Activating Polypeptide (PACAP) (GKRYKQRVKNK-NH2; ends and bridges not checked; UniProt P18509 159-169, looked up, fragment)”, for which the “hGal-7-induced apoptosis” value in the experiment on Jurkat T cells was “a slight increase in apoptosis is observed”. Besides, the “disruption of hGal-7 homodimers (in words)” value in the experiment on recombinant hGal-7 (native PAGE, Western blot) is reported as “No such effect was observed”.
